Carcinogen call data for six compounds are collected here from PubChem BioAssay AID1259411 (Chemical Carcinogenesis Research Information System (CCRIS), 2018).

In the series the test system is rodent carcinogenicity bioassays, tumor incidence. Put plainly: CCRIS carcinogenicity studies. The gist of the method: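 Archive of carcinogenicity, mutagenicity, tumor promotion and tumor inhibition results drawn from journals, NCI reports and other sources, expert-reviewed; covers 1985-2011 and is no longer updated.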

Molecules are shown by their SMILES. Activity calls are given as the source filed them. How the calls were made is not given here.

In the case of `NNC(N)=O`, the carcinogen call was “active; positive” (Species: MOUSE, Strain/Sex: SWISS/FEMALE, Route: ORAL, Dose: 0.0625% IN DRINKING WATER FOR LIFE, Tumor Site: Type of Lesion: BLOOD VESSELS: ANGIOMA, ANGIOSARCOMA, LUNG) and “inactive; negative” (Species: RAT, Strain/Sex: STRAIN-CD/FEMALE, Route: ORAL, Dose: 500, 1000 PPM IN DIET FOR 78 WK (LOW DOSE) OR 32 WK (HIGH DOSE)).

Turning to `NCl`, the carcinogen call reads like this: (Species: MOUSE, Strain/Sex: B6C3F1/FEMALE, Route: ORAL, Dose: 0, 50, 100, 200 PPM IN BUFFERED, CHARCOAL-FILTERED, DEIONIZED WATER FOR 104 WK (STUDY DURATION: 2 YR), Dose: 0, 50, 100, 200 PPM IN BUFFERED, CHARCOAL-FILTERED, DEIONIZED WATER FOR 104 WK (STUDY DURATION: 2 YR)) “inactive; negative”; (Species: MOUSE, Strain/Sex: B6C3F1/MALE, Route: ORAL, Dose: 0, 50, 100, 200 PPM IN BUFFERED, CHARCOAL-FILTERED, DEIONIZED WATER FOR 104 WK (STUDY DURATION: 2 YR), Dose: 0, 50, 100, 200 PPM IN BUFFERED, CHARCOAL-FILTERED, DEIONIZED WATER FOR 104 WK (STUDY DURATION: 2 YR)) “inactive; negative”; (Species: RAT, Strain/Sex: F344/MALE, Route: ORAL, Dose: 0, 50, 100, 200 PPM IN BUFFERED, CHARCOAL-FILTERED, DEIONIZED WATER FOR 103 WK (STUDY DURATION: 2 YR), Dose: 0, 50, 100, 200 PPM IN BUFFERED, CHARCOAL-FILTERED, DEIONIZED WATER FOR 103 WK (STUDY DURATION: 2 YR)) “inactive; negative”.

As for `Cc1cn([C@H]2C[C@H](N=[N+]=[N-])[C@@H](CO)O2)c(=O)[nH]c1=O`, the carcinogen call runs as follows: (Species: MOUSE, Strain/Sex: B6C3F1/FEMALE, Route: GAVAGE, Dose: 0, 30, 60, 120 MG/KG BW IN 0.5% METHYLCELLULOSE ADMINISTERED IN TWO EQUAL DOSES DAILY 5 D/WK FOR 105 WK (STUDY DURATION:, Dose: 0, 30, 60, 120 MG/KG BW IN 0.5% METHYLCELLULOSE ADMINISTERED IN TWO EQUAL DOSES DAILY 5 D/WK FOR 105 WK (STUDY DURATION:, Tumor Site: Type of Lesion: VAGINA: SQUAMOUS CELL CARCINOMA, SQUAMOUS CELL PAPILLOMA OR CARCINOMA) “active; positive”; (Species: MOUSE, Strain/Sex: B6C3F1/MALE, Route: GAVAGE, Dose: 0, 30, 60, 120 MG/KG BW IN 0.5% METHYLCELLULOSE ADMINISTERED IN TWO EQUAL DOSES DAILY 5 D/WK FOR 105 WK (STUDY DURATION:, Dose: 0, 30, 60, 120 MG/KG BW IN 0.5% METHYLCELLULOSE ADMINISTERED IN TWO EQUAL DOSES DAILY 5 D/WK FOR 105 WK (STUDY DURATION:, Tumor Site: Type of Lesion: KIDNEY: RENAL TUBULE ADENOMA, RENAL TUBULE CARCINOMA, HARDERIAN GLAND: ADENOMA, ADENOMA OR CARCINOMA) “equivocal”; (Species: MOUSE, Strain/Sex: CD-1/FEMALE, Route: GAVAGE, Dose: 0, 30, 60, 120 MG/KG/D ON DAY 91 OF STUDY DOSES LOWERED TO 20, 30, 40 MG/KG (STUDY DURATION: 22 MO), Dose: 0, 30, 60, 120 MG/KG/D ON DAY 91 OF STUDY DOSES LOWERED TO 20, 30, 40 MG/KG (STUDY DURATION: 22 MO), Tumor Site: Type of Lesion: VAGINA: SQUAMOUS CELL CARCINOMA) “active; positive”; (Species: MOUSE, Strain/Sex: CD-1/FEMALE, Route: INTRAVAGINAL, Dose: 0, 5, 20 MG/ML IN 0.9% SALINE ADMINISTERED AT 0.2 ML 2/D (STUDY DURATION: 24 MO), Dose: 0, 5, 20 MG/ML IN 0.9% SALINE ADMINISTERED AT 0.2 ML 2/D (STUDY DURATION: 24 MO), Tumor Site: Type of Lesion: VAGINA: SQUAMOUS CELL CARCINOMA) “active; positive”; (Species: MOUSE, Strain/Sex: CD-1/MALE, Route: GAVAGE, Dose: 0, 30, 60, 120 MG/KG/D ON DAY 91 OF STUDY DOSES LOWERED TO 20, 30, 40 MG/KG/D (STUDY DURATION: 19 MO), Dose: 0, 30, 60, 120 MG/KG/D ON DAY 91 OF STUDY DOSES LOWERED TO 20, 30, 40 MG/KG/D (STUDY DURATION: 19 MO)) “inactive; negative”; (Species: Mouse, Strain/Sex: Swiss (CD-1)/Female F1 Generation, Route: In utero, Dose: 0, 50, 100, 200, 300 mg/kg by gavage to F0 generation females 7 d/wk for 29-39 d (delivery day): females mated with unex, Dose: 0, 50, 100, 200, 300 mg/kg by gavage to F0 generation females 7 d/wk for 29-39 d (delivery day): females mated with unex) “inactive; negative; decreased litter size and fertility rates at two highest doses”. In addition, the carcinogen call (Species: Mouse, Strain/Sex: Swiss (CD-1)/Male F1 Generation, Route: In utero, Dose: 0, 50, 100, 200, 300 mg/kg by gavage to F0 generation females 7 d/wk for 29-39 d (delivery day): females mated with unex, Dose: 0, 50, 100, 200, 300 mg/kg by gavage to F0 generation females 7 d/wk for 29-39 d (delivery day): females mated with unex, Tumor Site: Type of Lesion: Lung, Alveolar/Bronchiolar Carcinoma (5/50, 11/50, 6/50, 11/37, 8/32), Alveolar/Bronchiolar adenoma or carcinoma (14/50,, Tumor Site: Type of Lesion: Lung, Alveolar/Bronchiolar Carcinoma (5/50, 11/50, 6/50, 11/37, 8/32), Alveolar/Bronchiolar adenoma or carcinoma (14/50) was “active; positive; decreased litter size and fertility rates at two highest doses”; the carcinogen call (Species: RAT, Strain/Sex: STRAIN-CD/MALE, Route: GAVAGE, Dose: 0, 80, 220, 600 MG/KG/D, HIGH DOSE LOWERED TO 450 MG/KG THEN 300 MG/KG ON DAYS 91 AND 278, RESPECTIVELY (STUDY DURATION:, Dose: 0, 80, 220, 600 MG/KG/D, HIGH DOSE LOWERED TO 450 MG/KG THEN 300 MG/KG ON DAYS 91 AND 278, RESPECTIVELY (STUDY DURATION:) was “inactive; negative”.

Turning to `CCNC(=O)N(C=O)CCN(C)C`, the carcinogen call runs as follows: (Species: RAT, Strain/Sex: F344/FEMALE, Route: INTRAGASTRIC, Dose: 0, 25 MG/ML CORN OIL/ETHYL ACETATE (2:1) SOLUTION ADMINISTERED AS 0.2 ML 2/WK FOR 37 WK (STUDY DURATION: 102 WK), Tumor Site: Type of Lesion: NASAL CAVITY: ADENOMA) “active; positive”; (Species: RAT, Strain/Sex: F344/MALE, Route: INTRAGASTRIC, Dose: 0, 25 MG/ML CORN OIL/ETHYL ACETATE (2:1) SOLUTION ADMINISTERED AS 0.2 ML 2/WK FOR 37 WK (STUDY DURATION: 102 WK)) “inactive; negative”.

Turning to `Cc1c2ccccc2c(COS(=O)(=O)O)c2ccc3ccccc3c12`, the carcinogen call was “active; positive” (Species: MOUSE, Strain/Sex: B6C3F1/MALE, Route: INTRAPERITONEAL, Dose: 0, 0.001, 0.003, 0.01 UMOL/G IN 5 µL/G DMSO ONCE ON D 12 OF AGE (STUDY DURATION: 10 MO), Dose: 0, 0.001, 0.003, 0.01 UMOL/G IN 5 µL/G DMSO ONCE ON D 12 OF AGE (STUDY DURATION: 10 MO), Tumor Site: Type of Lesion: LIVER: HEPATOMA); “active; positive” (Species: MOUSE, Strain/Sex: B6C3F1/MALE, Route: INTRAPERITONEAL, Dose: 0, 0.0025 UMO1/G IN 10 ML/G TRIOCTANOIN ON 12, 16, 20, AND 24 D OF AGE (STUDY DURATION: 10 MO), Tumor Site: Type of Lesion: LIVER: HEPATOMA); “active; positive” (Species: MOUSE, Strain/Sex: B6C3F1/MALE, Route: INTRAPERITONEAL, Dose: 0, 0.0025 UMOL/G IN 10 µL/G TRIOCTANOIN ONCE ON D 12 OF AGE (STUDY DURATION: 10 MO), Tumor Site: Type of Lesion: LIVER: HEPATOMA); “inactive; negative” (Species: MOUSE, Strain/Sex: STRAIN-A/FEMALE, Route: INTRAPERITONEAL, Dose: 0, 0.1 001;0.003, 0.01 UMOL/G IN 5 µL DMSO/G ONCE AT 4-6 WK OF AGE (STUDY DURATION: 6 MO), Dose: 0, 0.1 001;0.003, 0.01 UMOL/G IN 5 µL DMSO/G ONCE AT 4-6 WK OF AGE (STUDY DURATION: 6 MO)); “active; positive” (Species: RAT, Strain/Sex: SPRAGUE-DAWLEY/FEMALE, Route: SUBCUTANEOUS, Dose: 0, 0.2 UMOL 3/WK FOR 20 DOSES (STUDY DURATION: 52 WK), Tumor Site: Type of Lesion: INJECTION SITE: SARCOMA); “inactive; negative” (Species: RAT, Strain/Sex: SPRAGUE-DAWLEY/FEMALE, Route: SUBCUTANEOUS, Dose: 0, 2 UMOL IN 0.25 ML TRIOCTANOIN INTO LEFT HIND LEG AT ABOUT 40 D OF AGE FOLLOWED BY A SECOND DOSE 6 D LATER (STUDY DURA). Further, the carcinogen call (Species: RAT, Strain/Sex: SPRAGUE-DAWLEY/FEMALE, Route: SUBCUTANEOUS, Dose: 0, 2 UMOL IN 0.25 ML TRIOCTANOIN ONCE INTO LEFT HIND LEG AT ABOUT 40 D OF AGE (STUDY DURATION: 16 MO)) was “inactive; negative”.

Turning to `O=c1ccc2ccc3occc3c2o1`, where the note is “Species: MOUSE, Strain/Sex: C3H/HEN/FEMALE, Route: DERMAL, Dose: 215 UG IN 70% ETHANOL 3/WK FOR 48 WK (STUDY DURATION: 68 WK)”, the carcinogen call was “inactive; negative”.
